Measured values published in ChEMBL document CHEMBL3885881, “DrugMatrix”.

Species: Rattus norvegicus
Assay: DrugMatrix - Regimen: Daily Repeat
Assay type: toxicity, organism-based, Sprague-Dawley
Set-up: regimen Daily Repeat, gender Male, age 6-8 weeks
Details: in vivo, po, route oral GAVAGE; for BASOPHIL / EOSINOPHIL / ERYTHROCYTE COUNT / HEMATOCRIT / HEMOGLOBIN / LEUKOCYTE COUNT / LYMPHOCYTE / MEAN CORPUSCULAR HEMOGLOBIN / MEAN CORPUSCULAR HEMOGLOBIN CONCENTRATION / MEAN CORPUSCULAR VOLUME / MONOCYTE / NEUTROPHIL / PLATELET COUNT / ABSOLUTE BASOPHIL / ABSOLUTE EOSINOPHIL / ABSOLUTE LYMPHOCYTE / ABSOLUTE MONOCYTE / ABSOLUTE SEGMENTED NEUTROPHIL / NUCLEATED RED BLOOD CELLS: tissue Blood; for ALANINE AMINOTRANSFERASE / ALBUMIN / ALKALINE PHOSPHATASE / ASPARTATE AMINOTRANSFERASE / BLOOD UREA NITROGEN / CARBON DIOXIDE / CHLORIDE / CHOLESTEROL / CREATINE PHOSPHOKINASE / CREATININE / GLUCOSE / LACTATE DEHYDROGENASE / LIPASE / PHOSPHORUS / POTASSIUM / SODIUM / TOTAL BILIRUBIN / TOTAL PROTEIN / URIC ACID: tissue Plasma
[1] = 0 mg/kg, 72 h, dose level Control, time 3 day, vehicle .5 % CMC
[2] = 0 mg/kg, 120 h, dose level Control, time 5 day, vehicle .5 % CMC
[3] = 0 mg/kg, […], dose level Control, time 14 day, vehicle .5 % CMC
[4] = 20 mg/kg, 72 h, dose level Low, time 3 day, vehicle 100 % WATER
[5] = 20 mg/kg, 120 h, dose level Low, time 5 day, vehicle 100 % WATER

SMILES: O=[N+]([O-])c1ccccc1 [NITROBENZENE]
- BASOPHIL [1]: 0.62%
- EOSINOPHIL [1]: 0.52%
- ERYTHROCYTE COUNT [1]: 6.33 x10E6/uL
- HEMATOCRIT [1]: 41.88%
- HEMOGLOBIN [1]: 13.52 G/DL
- LEUKOCYTE COUNT [1]: 11.39 x10E3/uL
- LYMPHOCYTE [1]: 86.18%
- MEAN CORPUSCULAR HEMOGLOBIN [1]: 21.35 pg
- MEAN CORPUSCULAR HEMOGLOBIN CONCENTRATION [1]: 32.23 G/DL
- MEAN CORPUSCULAR VOLUME [1]: 66.25 fL
- MONOCYTE [1]: 1.93%
- NEUTROPHIL [1]: 9.1%
- PLATELET COUNT [1]: 1204.5 x10E3/uL
- ALANINE AMINOTRANSFERASE [1]: 43 u/L
- ALBUMIN [1]: 4.08 G/DL
- ALKALINE PHOSPHATASE [1]: 426.33 u/L
- ASPARTATE AMINOTRANSFERASE [1]: 72.5 u/L
- BLOOD UREA NITROGEN [1]: 16.67 mg/dL
- CARBON DIOXIDE [1]: 28.33 mmol/L
- CHLORIDE [1]: 103.5 MEQ/L
- CHOLESTEROL [1]: 78.83 mg/dL
- CREATINE PHOSPHOKINASE [1]: 325.67 u/L
- CREATININE [1]: 0.48 mg/dL
- GLUCOSE [1]: 171.67 mg/dL
- LACTATE DEHYDROGENASE [1]: 107.33 u/L
- LIPASE [1]: 11.83 u/L
- PHOSPHORUS [1]: 12.55 mg/dL
- POTASSIUM [1]: 6.57 MEQ/L
- SODIUM [1]: 145.67 MEQ/L
- TOTAL BILIRUBIN [1]: 0.42 mg/dL
- TOTAL PROTEIN [1]: 6.1 G/DL
- URIC ACID [1]: 1.57 mg/dL
- BASOPHIL [2]: 0.48%
- EOSINOPHIL [2]: 0.67%
- ERYTHROCYTE COUNT [2]: 6.69 x10E6/uL
- HEMATOCRIT [2]: 44.17%
- HEMOGLOBIN [2]: 13.78 G/DL
- LEUKOCYTE COUNT [2]: 7.86 x10E3/uL
- LYMPHOCYTE [2]: 85.9%
- MEAN CORPUSCULAR HEMOGLOBIN [2]: 20.6 pg
- MEAN CORPUSCULAR HEMOGLOBIN CONCENTRATION [2]: 31.25 G/DL
- MEAN CORPUSCULAR VOLUME [2]: 65.9 fL
- MONOCYTE [2]: 3.27%
- NEUTROPHIL [2]: 8.67%
- PLATELET COUNT [2]: 1182.33 x10E3/uL
- ALANINE AMINOTRANSFERASE [2]: 37.5 u/L
- ALBUMIN [2]: 4 G/DL
- ALKALINE PHOSPHATASE [2]: 348.17 u/L
- ASPARTATE AMINOTRANSFERASE [2]: 71.67 u/L
- BLOOD UREA NITROGEN [2]: 13 mg/dL
- CARBON DIOXIDE [2]: 27 mmol/L
- CHLORIDE [2]: 104.67 MEQ/L
- CHOLESTEROL [2]: 73.33 mg/dL
- CREATINE PHOSPHOKINASE [2]: 211.33 u/L
- CREATININE [2]: 0.23 mg/dL
- GLUCOSE [2]: 155 mg/dL
- LACTATE DEHYDROGENASE [2]: 133.83 u/L
- LIPASE [2]: 11.17 u/L
- PHOSPHORUS [2]: 14.53 mg/dL
- POTASSIUM [2]: 6.65 MEQ/L
- SODIUM [2]: 148.17 MEQ/L
- TOTAL BILIRUBIN [2]: 0.28 mg/dL
- TOTAL PROTEIN [2]: 6.22 G/DL
- URIC ACID [2]: 1.57 mg/dL
- BASOPHIL [3]: 0.97%
- EOSINOPHIL [3]: 0.8%
- ERYTHROCYTE COUNT [3]: 7.02 x10E6/uL
- HEMATOCRIT [3]: 44.43%
- HEMOGLOBIN [3]: 14.58 G/DL
- LEUKOCYTE COUNT [3]: 16.49 x10E3/uL
- LYMPHOCYTE [3]: 79.03%
- MEAN CORPUSCULAR HEMOGLOBIN [3]: 20.85 pg
- MEAN CORPUSCULAR HEMOGLOBIN CONCENTRATION [3]: 32.78 G/DL
- MEAN CORPUSCULAR VOLUME [3]: 63.57 fL
- MONOCYTE [3]: 1.9%
- NEUTROPHIL [3]: 15.18%
- PLATELET COUNT [3]: 1184.33 x10E3/uL
- ALANINE AMINOTRANSFERASE [3]: 43 u/L
- ALBUMIN [3]: 4.25 G/DL
- ALKALINE PHOSPHATASE [3]: 409.67 u/L
- ASPARTATE AMINOTRANSFERASE [3]: 84.17 u/L
- BLOOD UREA NITROGEN [3]: 16 mg/dL
- CARBON DIOXIDE [3]: 35.17 mmol/L
- CHLORIDE [3]: 99.83 MEQ/L
- CHOLESTEROL [3]: 68.67 mg/dL
- CREATINE PHOSPHOKINASE [3]: 384.17 u/L
- CREATININE [3]: 0.43 mg/dL
- GLUCOSE [3]: 160 mg/dL
- LACTATE DEHYDROGENASE [3]: 115.33 u/L
- LIPASE [3]: 17.33 u/L
- PHOSPHORUS [3]: 10.68 mg/dL
- POTASSIUM [3]: 6.48 MEQ/L
- SODIUM [3]: 148.17 MEQ/L
- TOTAL BILIRUBIN [3]: 0.45 mg/dL
- TOTAL PROTEIN [3]: 6.57 G/DL
- URIC ACID [3]: 1.78 mg/dL

SMILES: COCCCOc1ccnc(C[S+]([O-])c2nc3ccccc3[nH]2)c1C (stereo unspecified) [RABEPRAZOLE]
- ABSOLUTE BASOPHIL [4]: 0 CELLS/uL
- ABSOLUTE EOSINOPHIL [4]: 317.67 CELLS/uL
- ABSOLUTE LYMPHOCYTE [4]: 11906.67 CELLS/uL
- ABSOLUTE MONOCYTE [4]: 267.33 CELLS/uL
- ABSOLUTE SEGMENTED NEUTROPHIL [4]: 875 CELLS/uL
- BASOPHIL [4]: 0%
- EOSINOPHIL [4]: 2.33%
- ERYTHROCYTE COUNT [4]: 5.67 x10E6/uL
- HEMATOCRIT [4]: 36.1%
- HEMOGLOBIN [4]: 13.63 G/DL
- LEUKOCYTE COUNT [4]: 13.37 x10E3/uL
- LYMPHOCYTE [4]: 89%
- MEAN CORPUSCULAR HEMOGLOBIN [4]: 24.07 pg
- MEAN CORPUSCULAR HEMOGLOBIN CONCENTRATION [4]: 37.8 G/DL
- MEAN CORPUSCULAR VOLUME [4]: 63.8 fL
- MONOCYTE [4]: 2%
- NEUTROPHIL [4]: 6.67%
- NUCLEATED RED BLOOD CELLS [4]: 0 /100WBC
- PLATELET COUNT [4]: 1283.67 x10E3/uL
- ALANINE AMINOTRANSFERASE [4]: 42 u/L
- ALBUMIN [4]: 4.3 G/DL
- ALKALINE PHOSPHATASE [4]: 427.67 u/L
- ASPARTATE AMINOTRANSFERASE [4]: 83.33 u/L
- BLOOD UREA NITROGEN [4]: 14.33 mg/dL
- CARBON DIOXIDE [4]: 27 mmol/L
- CHLORIDE [4]: 105.67 MEQ/L
- CHOLESTEROL [4]: 82.33 mg/dL
- CREATINE PHOSPHOKINASE [4]: 491.33 u/L
- CREATININE [4]: 0.16 mg/dL
- GLUCOSE [4]: 161.67 mg/dL
- LACTATE DEHYDROGENASE [4]: 92.33 u/L
- LIPASE [4]: 9 u/L
- PHOSPHORUS [4]: 14.1 mg/dL
- POTASSIUM [4]: 6.68 MEQ/L
- SODIUM [4]: 146.6 MEQ/L
- TOTAL BILIRUBIN [4]: 0.2 mg/dL
- TOTAL PROTEIN [4]: 5.87 G/DL
- URIC ACID [4]: 2.2 mg/dL
- ABSOLUTE BASOPHIL [5]: 0 CELLS/uL
- ABSOLUTE EOSINOPHIL [5]: 38.67 CELLS/uL
- ABSOLUTE LYMPHOCYTE [5]: 10652 CELLS/uL
- ABSOLUTE MONOCYTE [5]: 120.67 CELLS/uL
- ABSOLUTE SEGMENTED NEUTROPHIL [5]: 788.67 CELLS/uL
- BASOPHIL [5]: 0%
- EOSINOPHIL [5]: 0.33%
- ERYTHROCYTE COUNT [5]: 5.6 x10E6/uL
- HEMATOCRIT [5]: 36.27%
- HEMOGLOBIN [5]: 13.6 G/DL
- LEUKOCYTE COUNT [5]: 11.6 x10E3/uL
- LYMPHOCYTE [5]: 91.67%
- MEAN CORPUSCULAR HEMOGLOBIN [5]: 24.27 pg
- MEAN CORPUSCULAR HEMOGLOBIN CONCENTRATION [5]: 37.5 G/DL
- MEAN CORPUSCULAR VOLUME [5]: 64.73 fL
- MONOCYTE [5]: 1%
- NEUTROPHIL [5]: 7%
- NUCLEATED RED BLOOD CELLS [5]: 0 /100WBC
- PLATELET COUNT [5]: 1417.67 x10E3/uL
- ALANINE AMINOTRANSFERASE [5]: 49.33 u/L
- ALBUMIN [5]: 4.17 G/DL
- ALKALINE PHOSPHATASE [5]: 321 u/L
- ASPARTATE AMINOTRANSFERASE [5]: 105 u/L
- BLOOD UREA NITROGEN [5]: 19 mg/dL
- CARBON DIOXIDE [5]: 23 mmol/L
- CHLORIDE [5]: 110 MEQ/L
- CHOLESTEROL [5]: 67 mg/dL
- CREATINE PHOSPHOKINASE [5]: 1368.67 u/L
- CREATININE [5]: 0.21 mg/dL
- GLUCOSE [5]: 203 mg/dL
- LACTATE DEHYDROGENASE [5]: 225 u/L
- LIPASE [5]: 8.67 u/L
- PHOSPHORUS [5]: 13.93 mg/dL
- POTASSIUM [5]: 6.05 MEQ/L
- SODIUM [5]: 148.17 MEQ/L
- TOTAL BILIRUBIN [5]: 0.2 mg/dL
- URIC ACID [5]: 1.77 mg/dL
